Experimental data from patent publication US20090264433A1, “Compounds, Compositions and Methods Comprising Triazine Derivatives” (Institute for OneWorld Health, priority 2008, published 2009).
Counter-ions that a name gives are not always drawn.

Biological target: T1, CFTR channel in human colonic T84 cells (Homo sapiens, UniProt P13569)
T1 construct: results in the phosphorylation and opening of CFTR anion channels; host or cells: human colonic T84 cells
Assay: T84 assay (FLIPR membrane potential dye, forskolin/IBMX-stimulated CFTR)
Type: cell-based
Settings: average of at least 2 runs unless annotated n = 1
Procedure, shortened: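 T84 cells (25,000/well, grown overnight) were washed in HBSS with 10 mM Hepes, then loaded with FLIPR Red membrane potential dye for 45 min with or without compound. CFTR was stimulated with 10 μM forskolin plus 100 μM IBMX after a 10 s baseline. Depolarization was tracked as a fluorescence increase, read every second for 150 s.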

T1 sequence (P13569 whole entry): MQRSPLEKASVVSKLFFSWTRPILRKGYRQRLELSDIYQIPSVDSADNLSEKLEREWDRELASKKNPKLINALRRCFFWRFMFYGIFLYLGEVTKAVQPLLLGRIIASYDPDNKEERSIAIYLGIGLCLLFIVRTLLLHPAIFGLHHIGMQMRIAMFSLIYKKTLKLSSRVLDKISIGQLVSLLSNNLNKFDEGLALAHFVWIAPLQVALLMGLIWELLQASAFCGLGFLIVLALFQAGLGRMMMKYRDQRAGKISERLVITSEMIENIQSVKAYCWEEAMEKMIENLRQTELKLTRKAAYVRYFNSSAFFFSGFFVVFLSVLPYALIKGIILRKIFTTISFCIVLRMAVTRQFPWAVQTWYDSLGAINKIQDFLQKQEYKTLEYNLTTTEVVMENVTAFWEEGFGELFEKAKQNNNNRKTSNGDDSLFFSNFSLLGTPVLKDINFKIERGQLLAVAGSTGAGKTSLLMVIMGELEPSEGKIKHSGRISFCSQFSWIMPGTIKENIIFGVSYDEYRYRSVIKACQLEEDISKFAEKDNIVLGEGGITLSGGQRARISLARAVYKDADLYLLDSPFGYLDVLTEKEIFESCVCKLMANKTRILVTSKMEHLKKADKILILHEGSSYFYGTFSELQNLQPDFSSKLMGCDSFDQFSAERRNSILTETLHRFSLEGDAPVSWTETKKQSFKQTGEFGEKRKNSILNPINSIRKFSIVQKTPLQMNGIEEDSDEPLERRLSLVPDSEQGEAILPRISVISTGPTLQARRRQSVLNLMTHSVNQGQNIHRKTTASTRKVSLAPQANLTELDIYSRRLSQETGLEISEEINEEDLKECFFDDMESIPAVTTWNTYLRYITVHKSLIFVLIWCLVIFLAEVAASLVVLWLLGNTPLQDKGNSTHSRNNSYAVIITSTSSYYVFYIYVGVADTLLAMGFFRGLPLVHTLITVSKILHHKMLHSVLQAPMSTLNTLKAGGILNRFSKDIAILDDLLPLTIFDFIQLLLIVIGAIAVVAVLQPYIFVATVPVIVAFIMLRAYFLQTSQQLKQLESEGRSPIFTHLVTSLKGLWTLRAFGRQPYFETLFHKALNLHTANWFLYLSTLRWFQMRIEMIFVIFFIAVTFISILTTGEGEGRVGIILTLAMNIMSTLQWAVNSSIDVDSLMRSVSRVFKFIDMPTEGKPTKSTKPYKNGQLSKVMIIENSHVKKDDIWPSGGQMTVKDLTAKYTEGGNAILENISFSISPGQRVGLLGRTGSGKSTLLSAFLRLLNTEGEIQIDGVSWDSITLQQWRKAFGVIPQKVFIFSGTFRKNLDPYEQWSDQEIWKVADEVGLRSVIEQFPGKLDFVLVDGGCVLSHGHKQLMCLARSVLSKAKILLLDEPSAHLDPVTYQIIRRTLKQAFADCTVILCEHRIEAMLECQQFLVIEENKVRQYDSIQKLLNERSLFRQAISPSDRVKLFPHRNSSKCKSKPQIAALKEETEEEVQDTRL

SMILES | IC50 [µM]
CN(Cc1ccc(COc2ncc(-c3cc(Cl)c(O)c(Cl)c3)nn2)cc1)Cc1cccc(-c2ncccn2)c1 [Compound 205, 2,6-dichloro-4-(3-(4-((methyl(3-(pyrimidin-2-yl)benzyl)amino)methyl)benzyl-oxy)-1,2,4-triazin-6-yl)phenol] | 4.18
Oc1c(Br)cc(-c2cnc(OCc3ccc(C(F)(F)F)cc3)nn2)cc1Br [Compound 16, 2,6-dibromo-4-(3-(4-(trifluoromethyl)benzyloxy)-1,2,4-triazin-6-yl)phenol] | 1.07
Oc1c(Br)cc(-c2cnc(OCc3ccccc3Cl)nn2)cc1Br [Compound 18, 2,6-dibromo-4-(3-(2-chlorobenzyloxy)-1,2,4-triazin-6-yl)phenol] | 1.18
Oc1c(Cl)cc(-c2cnc(OCc3ccc(CN4CCc5ccccc5C4)cc3)nn2)cc1Cl [Compound 166] | 3.08
CN(Cc1ccc(COc2ncc(-c3cc(Cl)c(O)c(Cl)c3)nn2)cc1)Cc1ccc(-c2ccc(C(F)(F)F)cn2)cc1 [Compound 210, 2,6-dichloro-4-(3-(4-((methyl(4-(5-(trifluoromethyl)pyridin-2-yl)benzyl)amino)methyl)benzyloxy)-1,2,4-triazin-6-yl)phenol] | 6.42
CN(Cc1ccc(COc2ncc(-c3cc(Cl)c(O)c(Cl)c3)nn2)cc1)C(c1ccccc1)c1ccccc1 [Compound 171, 4-(3-(4-((benzhydryl(methyl)amino)methyl)benzyloxy)-1,2,4-triazin-6-yl)-2,6-dichlorophenol] | 14.4
O=C(c1cccnc1)N1CCN(Cc2ccc(COc3ncc(-c4cc(Cl)c(O)c(Cl)c4)nn3)cc2)CC1 [Compound 224, (4-(4-((6-(3,5-dichloro-4-hydroxyphenyl)-1,2,4-triazin-3-yloxy)methyl)benzyl)piperazin-1-yl)(pyridin-3-yl)methanone] | 11.8
CN(Cc1ccc(COc2ncc(-c3cc(Cl)c(O)c(Cl)c3)nn2)cc1)Cc1ccc(CN2CCCCC2)cc1 [Compound 208, 2,6-dichloro-4-(3-(4-((methyl(4-(piperidin-1-ylmethyl)benzyl)amino)methyl)benzyloxy)-1,2,4-triazin-6-yl)phenol, formate salt] | 8.24
Cc1ccc(C(C)C)cc1OCc1ncc(-c2cc(Br)c(O)c(Br)c2)nn1 [Compound 53, 2,6-dibromo-4-(3-((5-isopropyl-2-methylphenoxy)methyl)-1,2,4-triazin-6-yl)phenol] | 20.1
Oc1c(Br)cc(-c2cnc(COc3ccc(Br)cc3)nn2)cc1Br [Compound 49, 2,6-dibromo-4-(3-((4-bromophenoxy)methyl)-1,2,4-triazin-6-yl)phenol] | 15.3
Oc1c(Br)cc(-c2cnc(OCCc3ccc(Cl)cc3Cl)nn2)cc1Br [Compound 10, 2,6-dibromo-4-(3-(2,4-dichlorophenethoxy)-1,2,4-triazin-6-yl)phenol] | 0.66
Oc1c(Cl)cc(-c2cnc(OCCc3ccc(Cl)cc3)nn2)cc1Cl [Compound 112, 2,6-dichloro-4-(3-(4-chlorophenethoxy)-1,2,4-triazin-6-yl)phenol] | 0.17
CC1(C)Cc2cccc(OCc3ncc(-c4cc(Cl)c(O)c(Cl)c4)nn3)c2O1 [Compound 50, 2,6-dichloro-4-(3-((2,2-dimethyl-2,3-dihydrobenzofuran-7-yloxy)methyl)-1,2,4-triazin-6-yl)phenol] | 15.4
COc1ccc(CCOc2ncc(-c3cc(Br)c(O)c(Br)c3)nn2)cc1 [Compound 97, 2,6-dibromo-4-(3-(4-methoxyphenethoxy)-1,2,4-triazin-6-yl)phenol] | 0.45
Oc1c(Cl)cc(-c2cnc(C(O)(c3ccccc3)c3ccccc3)nn2)cc1Cl [Compound 36, 2,6-dichloro-4-(3-(hydroxydiphenylmethyl)-1,2,4-triazin-6-yl)phenol] | 7.67
Oc1c(Cl)cc(-c2cnc(NCc3ccc(Cl)cc3Cl)nn2)cc1Cl [Compound 134, 2,6-dichloro-4-(3-(2,4-dichlorobenzylamino)-1,2,4-triazin-6-yl)phenol, formate salt] | 9.65
Oc1c(Br)cc(-c2cnc(OCc3cccc(Cl)c3Cl)nn2)cc1Br [Compound 23, 2,6-dibromo-4-(3-(2,3-dichlorobenzyloxy)-1,2,4-triazin-6-yl)phenol] | 2.7
CC(Oc1ncc(-c2cc(Br)c(O)c(Br)c2)nn1)c1cccc(Cl)c1 (stereo not drawn) [Compound 12, 2,6-dibromo-4-(3-(1-(3-chlorophenyl)ethoxy)-1,2,4-triazin-6-yl)phenol] | 0.84
CC(C)(c1ccccc1)c1ccc(OCc2ncc(-c3cc(Br)c(O)c(Br)c3)nn2)cc1 [Compound 35, 2,6-dibromo-4-(3-((4-(2-phenylpropan-2-yl)phenoxy)methyl)-1,2,4-triazin-6-yl)phenol] | 7.31
CC1(C)Cc2cccc(OCc3ncc(-c4cc(Br)c(O)c(Br)c4)nn3)c2O1 [Compound 128, 2,6-dibromo-4-(3-((2,2-dimethyl-2,3-dihydrobenzofuran-7-yloxy)methyl)-1,2,4-triazin-6-yl)phenol] | 28.8
CN(C)c1ccccc1COc1ncc(-c2cc(Cl)c(O)c(Cl)c2)nn1 [Compound 140, 2,6-dichloro-4-(3-(2-(dimethylamino)benzyloxy)-1,2,4-triazin-6-yl)phenol] | 19.4
